The values below come from patent US20240109863A1, “2-PYRIDONE DERIVATIVE, AND PREPARATION METHOD THEREFOR AND PHARMACEUTICAL APPLICATION THEREOF” (KPC PHARMACEUTICALS, INC, priority 2020, published 2024).

One assay concerns the target T1, THRβ (Homo sapiens, UniProt P10828).
T1 construct: RXRα and THRβ-LBD Eu-anti-GST antibody with GST tag
Put plainly: THRβ binding assay (time-resolved FRET coactivator peptide recruitment). The format is biochemical. The note with it: THRβ-LBD/RXRα, SRC2-2 coactivator peptide recruitment, 4 hours at room temperature. How it is done:
Experimental methods: In vitro analysis of the agonistic effect of compounds on THRβ was performed using time-resolved fluorescence resonance energy transfer coactivator peptide recruitment assays. The assay used biotin-SRC2-2 coactivator peptide, streptavidin-d2, RXRα and THRβ-LBD Eu-anti-GST antibody with GST tag. Eu-anti-GST antibody indirectly labeled THRβ-LBD by binding to the GST tag. Streptavidin-d2 indirectly labeled the SRC2-2 coactivator peptide by binding to the biotin tag. In the presence of RXRα, THRβ-LBD can form heterodimer THRβ-LBD/RXRα with it. […] According to the effect of different concentrations of the compound on the activity of THRβ, the agonistic ability of the compound can be evaluated.
The detailed procedure is as follows: • a. 100× reference compound or compound was prepared with DMSO, and equally diluted by 1:3. • b. 100× gradiently diluted reference compound or compound was diluted with 1× reaction buffer to 4×, which was then added to an assay plate. • c. A mixed solution of 4× THRβ-LBD and 4× RXRα was prepared with 1× reaction buffer, and added to the assay plate. • d. A mixed solution of 2× biotin-SRC2-2, 2× Eu-anti-GST, and 2× streptavidin-d2 was prepared with 1× reaction buffer, and added to the assay plate. • e. The assay plate was centrifuged at 1000 rpm for 1 min, and incubated at room temperature in the dark for 4 hours. • f.

For a further assay, the target named is T2, THRα (Homo sapiens, UniProt P10827).
T2 construct: GST
T2 sequence (P10827 1-410 isoform P10827-2, other chains not shown): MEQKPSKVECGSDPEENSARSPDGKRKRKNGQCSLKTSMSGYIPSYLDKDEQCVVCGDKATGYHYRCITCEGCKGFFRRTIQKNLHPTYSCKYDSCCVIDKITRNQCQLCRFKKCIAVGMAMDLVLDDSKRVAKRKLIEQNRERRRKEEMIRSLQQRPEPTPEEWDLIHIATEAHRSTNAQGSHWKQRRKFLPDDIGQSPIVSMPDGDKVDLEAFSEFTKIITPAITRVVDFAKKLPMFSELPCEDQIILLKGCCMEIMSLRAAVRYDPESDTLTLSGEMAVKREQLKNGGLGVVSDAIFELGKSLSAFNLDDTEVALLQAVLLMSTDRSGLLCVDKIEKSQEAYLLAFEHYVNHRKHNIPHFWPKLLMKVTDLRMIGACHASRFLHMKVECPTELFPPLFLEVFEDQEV
T2 sequence (P19793 whole entry partner, other chains not shown): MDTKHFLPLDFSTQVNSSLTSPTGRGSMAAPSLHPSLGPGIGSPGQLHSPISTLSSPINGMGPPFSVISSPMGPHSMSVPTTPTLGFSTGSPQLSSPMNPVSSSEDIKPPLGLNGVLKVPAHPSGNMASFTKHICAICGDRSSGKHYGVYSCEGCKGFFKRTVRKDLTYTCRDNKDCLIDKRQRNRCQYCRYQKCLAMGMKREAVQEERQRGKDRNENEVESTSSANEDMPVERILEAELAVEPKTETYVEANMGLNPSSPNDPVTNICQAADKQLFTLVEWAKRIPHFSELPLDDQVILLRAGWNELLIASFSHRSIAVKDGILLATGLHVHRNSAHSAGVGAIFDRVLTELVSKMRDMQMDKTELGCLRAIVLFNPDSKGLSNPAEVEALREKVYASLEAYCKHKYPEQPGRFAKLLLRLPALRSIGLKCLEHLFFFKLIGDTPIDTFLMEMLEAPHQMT
Put plainly: THRα binding assay (as the THRβ assay, THRβ replaced with THRα). It counts as biochemical. The note with it: for EC50: THRα in place of THRβ; for THRα/β selectivity (fold): ratio of THRα EC50 to THRβ EC50.

T1 sequence (P10828 217-461 limits assumed, other chains not shown): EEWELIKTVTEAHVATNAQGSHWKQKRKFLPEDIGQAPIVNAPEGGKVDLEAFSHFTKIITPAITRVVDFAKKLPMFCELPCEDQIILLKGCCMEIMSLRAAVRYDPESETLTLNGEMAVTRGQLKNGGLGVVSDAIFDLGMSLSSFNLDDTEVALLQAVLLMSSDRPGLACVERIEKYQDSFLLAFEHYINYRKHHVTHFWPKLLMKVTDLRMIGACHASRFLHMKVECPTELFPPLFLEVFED
T1 sequence (P19793 whole entry partner, other chains not shown, the tested form may be a part): as the sequence (P19793 whole entry partner, other chains not shown) above

Compound `CC(C)n1cc(Oc2c(Cl)cc(-n3nc(CF)c(=O)[nH]c3=O)cc2Cl)ccc1=O` [Example 44, 2-(3,5-Dichloro-4-((1-isopropyl-6-oxo-1,6-dihydropyridin-3-yl)oxy)phenyl)-6-(fluoromethyl)-1,2,4-triazine-3,5(2H, 4H)-dione] came in with a concentration giving a half-maximal response (EC50) on THRβ of 3 nM. On THRβ, `O=c1[nH]c(=O)n(-c2cc(Cl)c(Oc3ccc(=O)n(-c4cccc(OC(F)(F)F)c4)c3)c(Cl)c2)nc1CF` [Example 40, 2-(3,5-Dichloro-4-((6-oxo-1-(3-(trifluoromethoxy)phenyl)-1,6-dihydropyridin-3-yl)oxy)phenyl)-6-(fluoromethyl)-1,2,4-triazine-3,5(2H, 4H)-dione] displayed a concentration for a half-maximal effect (EC50) of 4 nM. At THRα, the EC50 was determined as 95 nM and the “THRα/β selectivity (fold)” value was found to be 23.7 fold. On to `N#Cc1nn(-c2cc(Cl)c(Oc3ccc(=O)n(-c4cccc(OC(F)(F)F)c4)c3)c(Cl)c2)c(=O)[nH]c1=O` [Example 24, 2-(3,5-Dichloro-4-((6-oxo-1-(3-(trifluoromethoxy)phenyl)-1,6-dihydropyridin-3-yl)oxy)phenyl)-3,5-dioxo-2,3,4,5-tetrahydro-1,2,4-triazine-6-carbonitrile], for which the EC50 at THRβ turned out to be 23 nM; on THRα, 810 nM. In addition, the “THRα/β selectivity (fold)” value on THRα came out at 35.2 fold. In turn, `N#Cc1nn(-c2cc(Cl)c(Oc3ccc(=O)[nH]c3)c(Cl)c2)c(=O)[nH]c1=O` [Example 2, 2-(3,5-Dichloro-4-((6-oxo-1,6-dihydropyridin-3-yl)oxy)phenyl)-3,5-dioxo-2,3,4,5-tetra hydro-1H-1,2,4-triazine-6-carbonitrile] yielded a 50% effective concentration (EC50) at THRβ of 3650 nM. Take `O=c1[nH]c(=O)n(-c2cc(Cl)c(Oc3ccc(=O)n(-c4cccc(F)c4)c3)c(Cl)c2)nc1CF` [Example 38, 2-(3,5-dichloro-4-((1-(3-fluorophenyl)-6-oxo-1,6-dihydropyridin-3-yl)oxy)phenyl)-6-(fluoromethyl)-1,2,4-triazine-3,5(2H, 4H)-dione]: the EC50 at THRβ amounted to 3 nM; at THRα, 85 nM. For the same compound, the “THRα/β selectivity (fold)” value at THRα was determined as 28.3 fold. With `O=c1[nH]c(=O)n(-c2cc(Cl)c(Oc3ccc(=O)n(-c4cccc(C(F)(F)F)c4)c3)c(Cl)c2)nc1CF` [Example 39, 2-(3,5-Dichloro-4-((6-oxo-1-(3-(trifluoromethyl)phenyl)-1,6-dihydropyridin-3-yl)oxy)phenyl)-6-(fluoromethyl)-1,2,4-triazine-3,5(2H, 4H)-dione], at THRβ, a half-maximal effect (EC50) was put at 5 nM. Besides, on THRα, the EC50 came to 117 nM and the “THRα/β selectivity (fold)” value came out at 23.3 fold. As for `CC(C)Cn1cc(Oc2c(Cl)cc(-n3nc(C#N)c(=O)[nH]c3=O)cc2Cl)ccc1=O` [Example 6, 2-(3,5-Dichloro-4-[(1-(2-methylpropyl)-6-oxo-1,6-dihydropyridin-3-yl)oxy]phenyl)-3,5-dioxo-2,3,4,5-tetrahydro-1,2,4-triazine-6-carbonitrile], the EC50 came out at 100 nM on THRβ and 2030 nM on THRα. Besides, the “THRα/β selectivity (fold)” value at THRα is reported as 20.3 fold. `Cc1ccccc1-n1cc(Oc2c(Cl)cc(-n3nc(C#N)c(=O)[nH]c3=O)cc2Cl)ccc1=O` [Example 27, 2-(3,5-Dichloro-4-((6-oxo-1-(o-methylphenyl)-1,6-dihydropyridin-3-yl)oxy)phenyl)-3,5-dioxo-1,2,3,4-4,5-tetrahydro-1,2,4-triazine-6-carbonitrile] returned an EC50 on THRβ of 136 nM. `N#Cc1cccc(-n2cc(Oc3c(Cl)cc(-n4nc(C#N)c(=O)[nH]c4=O)cc3Cl)ccc2=O)c1` [Example 28, 2-(3,5-Dichloro-4-((1-(3-cyanophenyl)-6-oxo-1,6-dihydropyridin-3-yl)oxy)phenyl)-3,5- -dioxo-1,2,3,4-4,5-tetrahydro-1,2,4-triazine-6-carbonitrile] came in with an EC50 at THRβ of 23 nM. On THRα, the 50% effective concentration (EC50) is 1140 nM and the “THRα/β selectivity (fold)” value was 49.5 fold.

Compound `N#Cc1nn(-c2cc(Cl)c(Oc3ccc(=O)n(C4=CCCCC4)c3)c(Cl)c2)c(=O)[nH]c1=O` [Example 13, 2-(3,5-Dichloro-4-((1-(cyclohex-1-en-1-yl)-6-oxo-1,6-dihydropyridin-3-yl)oxy)phenyl) -3,5-dioxo-2,3,4,5-tetrahydro-1,2,4-triazine-6-carbonitrile] gave a concentration giving a half-maximal response (EC50) at THRβ of 22 nM. Same read-out and setting: next, `Cc1cc(Oc2c(Cl)cc(-n3nc(C#N)c(=O)[nH]c3=O)cc2Cl)cn(C2CC2)c1=O` [Example 18, 2-(3,5-Dichloro-4-((1-cyclopropyl-5-methyl-6-oxo-1,6-dihydropyridin-3-yl)oxy)phenyl) -3,5-dioxo-2,3,4,5-tetrahydro-1,2,4-triazine-6-carbonitrile]: 1430 nM. With `N#Cc1nn(-c2cc(Cl)c(Oc3ccc(=O)n(-c4cccs4)c3)c(Cl)c2)c(=O)[nH]c1=O` [Example 33, 2-(3,5-Dichloro-4-((6-oxo-1-(thien-2-yl)-1,6-dihydropyridin-3-yl)oxy)phenyl)-3,5-diox o-2,3,4,5-tetrahydro-1,2,4-triazine-6-carbonitrile], the 50% effective concentration (EC50) on THRβ was found to be 119 nM. On the same count and under the same terms, next, `Cc1cc(C)cc(-n2cc(Oc3c(Cl)cc(-n4nc(C#N)c(=O)[nH]c4=O)cc3Cl)ccc2=O)c1` [Example 30, 2-(3,5-dichloro-4-((1-(3,5-dimethylphenyl)-6-oxo-1,6-dihydropyridin-3-yl)oxy)phenyl)-3,5-dioxo-2,3,4,5-tetrahydro-1,2,4-triazine-6-carbonitrile]: 150 nM; `O=c1[nH]c(=O)n(-c2cc(Cl)c(Oc3ccc(=O)n(-c4cccs4)c3)c(Cl)c2)nc1CF` [Example 43, 2-(3,5-Dichloro-4-((6-oxo-1-(thiophen-2-yl)-1,6-dihydropyridin-3-yl)oxy)phenyl)-6-(fluoromethyl)-1,2,4-triazine-3,5(2H, 4H)-dione]: 8 nM.

Consider `N#Cc1nn(-c2cc(Cl)c(Oc3ccc(=O)n(-c4nccs4)c3)c(Cl)c2)c(=O)[nH]c1=O` [Example 34, 2-(3,5-dichloro-4-((6-oxo-1-(thiazol-2-yl)-1,6-dihydropyridin-3-yl)oxy)phenyl)-3,5-dioxo-2,3,4,5-tetrahydro-1,2,4-triazine-6-carbonitrile], for which the concentration giving a half-maximal response (EC50) on THRβ came out at 435 nM.

As for `N#Cc1nn(-c2cc(Cl)c(Oc3ccc(=O)n(-c4ccsc4)c3)c(Cl)c2)c(=O)[nH]c1=O` [Example 32, 2-(3,5-Dichloro-4-((6-oxo-1-(thiophen-3-yl)-1,6-dihydropyridin-3-yl)oxy)phenyl)-3,5-dioxo-2,3,4,5-tetrahydro-1,2,4-triazine-6-carbonitrile], on THRβ, the EC50 was found to be 100 nM. On the same count and under the same terms, for `COCCn1cc(Oc2c(Cl)cc(-n3nc(CF)c(=O)[nH]c3=O)cc2Cl)ccc1=O` [Example 45, 2-(3,5-Dichloro-4-((1-(2-methoxyethyl)-6-oxo-1,6-dihydropyridin-3-yl)oxy)phenyl)-6-(fluoromethyl)-1,2,4-triazine-3,5(2H, 4H)-dione] the value was 32 nM; for `COCCn1cc(Oc2c(Cl)cc(-n3nc(C#N)c(=O)[nH]c3=O)cc2Cl)ccc1=O` [Example 8, 2-(3,5-Dichloro-4-((1-(2-methoxyethyl)-6-oxo-1,6-dihydropyridin-3-yl)oxy)phenyl) -3,5-dioxo-2,3,4,5-tetrahydro-1,2,4-triazine-6-carbonitrile], 431 nM; for `N#Cc1nn(-c2cc(Cl)c(Oc3ccc(=O)n(-c4cccc(C5CC5)c4)c3)c(Cl)c2)c(=O)[nH]c1=O` [Example 31, 2-(3,5-dichloro-4-((1-(3-cyclopropylphenyl)-6-oxo-1,6-dihydropyridin-3-yl)oxy)phenyl)-3,5-dioxo-2,3,4,5-tetrahydro-1,2,4-triazine-6-carbonitrile], 81 nM. `CCC(CC)n1cc(Oc2c(Cl)cc(-n3nc(C#N)c(=O)[nH]c3=O)cc2Cl)ccc1=O` [Example 7, 2-(3,5-dichloro-4-((6-oxo-1-(pentan-3-yl)-1,6-dihydropyridin-3-yl)oxy)phenyl)-3,5-dioxo-2,3,4,5-tetrahydro-1,2,4-triazine-6-carbonitrile]: the concentration for a half-maximal effect (EC50) on THRβ was found to be 40 nM. Still for that read-out and setting: next, `Cc1cccc(-n2cc(Oc3c(Cl)cc(-n4nc(C#N)c(=O)[nH]c4=O)cc3Cl)ccc2=O)c1` [Example 26, 2-(3,5-Dichloro-4-((6-oxo-1-(3-methylphenyl)-1,6-dihydropyridin-3-yl)oxy)phenyl)-3,5-dioxo-2,3,4,5-tetrahydro-1,2,4-triazine-6-carbonitrile]: 60 nM. Same read-out and setting: for `N#Cc1nn(-c2cc(Cl)c(Oc3ccc(=O)n(-c4cc(F)cc(F)c4)c3)c(Cl)c2)c(=O)[nH]c1=O` [Example 29, 2-(3,5-Dichloro-4-((1-(3,5-difluorophenyl)-6-oxo-1,6-dihydropyridin-3-yl)oxy)phenyl) -3,5-dioxo-2,3,4,5-tetrahydro-1,2,4-triazine-6-carbonitrile] the value was 297 nM; for `CC(C)n1cc(Oc2c(Cl)cc(-n3nc(C#N)c(=O)[nH]c3=O)cc2Cl)cc(C2CC2)c1=O` [Example 19, 2-(3,5-Dichloro-4-((5-cyclopropyl-1-isopropyl-6-oxo-1,6-dihydropyridin-3-yl)oxy)phenyl)-3,5-dioxo-2,3,4,5-tetrahydro-1,2,4-triazine-6-carbonitrile], 1340 nM.

A word on the EC50: it is the concentration that produces a half-maximal response. A low value points to an effect from little substance.
